For one data set, the target named is SUMO-activating enzyme (Homo sapiens, UniProt Q9UBT2). The data set can be described thus: blockers of UBC9-mediated SUMO conjugation – biochemical, AlphaScreen, SUMOylation inhibitor project, confirmation (AID 2018). The class given is functional. (Alpha assays give light when donor and acceptor beads are brought close together.)
The target of a further data set is Cytochrome P450 2D6 (Homo sapiens, UniProt P10635).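 Also: CYP2D6 member of a cytochrome P450 panel assay.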
The subject of data set [1] is HEK293. The data set can be described thus: NOD2 signaling inhibitors in MDP-stimulated cells, cell-based, uHTS, luminescence (AID 2001). The class given is functional. As to conditions: Homo sapiens.
The subject of data set [2] is HEK293. Nature of the data set: inhibition of NOD1-driven NF-kB reporter – cell-based, luminescence, uHTS, primary screen (AID 1578). As to conditions: Homo sapiens. The class given is functional.
Data set [3] deals with T1, Nucleotide-binding oligomerization domain-containing protein 1 (Homo sapiens, UniProt Q9Y239).
T1 sequence (Q9Y239 whole entry): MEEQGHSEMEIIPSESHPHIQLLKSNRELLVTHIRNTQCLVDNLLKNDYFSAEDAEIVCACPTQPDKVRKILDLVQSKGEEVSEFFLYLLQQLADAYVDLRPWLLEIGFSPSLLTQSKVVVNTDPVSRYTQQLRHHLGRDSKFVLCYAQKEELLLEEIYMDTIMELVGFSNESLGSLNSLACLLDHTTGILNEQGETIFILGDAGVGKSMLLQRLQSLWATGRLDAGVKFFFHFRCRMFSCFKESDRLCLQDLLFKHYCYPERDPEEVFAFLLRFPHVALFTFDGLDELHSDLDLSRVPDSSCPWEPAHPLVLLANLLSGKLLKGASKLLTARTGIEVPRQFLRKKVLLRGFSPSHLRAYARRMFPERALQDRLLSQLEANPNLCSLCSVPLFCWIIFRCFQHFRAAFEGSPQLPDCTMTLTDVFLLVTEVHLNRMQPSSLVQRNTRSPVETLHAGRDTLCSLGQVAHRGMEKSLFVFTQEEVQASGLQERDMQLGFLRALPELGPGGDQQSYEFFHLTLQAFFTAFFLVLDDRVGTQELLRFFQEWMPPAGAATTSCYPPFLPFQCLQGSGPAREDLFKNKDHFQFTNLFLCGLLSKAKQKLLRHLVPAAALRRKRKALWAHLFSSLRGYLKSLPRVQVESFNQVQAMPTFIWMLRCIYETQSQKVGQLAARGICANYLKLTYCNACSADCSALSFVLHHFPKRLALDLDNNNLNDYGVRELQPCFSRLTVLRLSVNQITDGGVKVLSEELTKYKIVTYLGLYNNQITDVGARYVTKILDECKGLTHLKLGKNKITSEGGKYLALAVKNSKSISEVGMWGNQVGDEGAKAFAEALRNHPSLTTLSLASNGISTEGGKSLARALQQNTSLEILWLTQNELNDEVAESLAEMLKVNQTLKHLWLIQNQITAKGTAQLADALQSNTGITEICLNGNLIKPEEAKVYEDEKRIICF
Nature of the data set: blockers of NOD1 pathway activity – revised, SAR follow-up (AID 2333). The class given is functional.

Data set [4] has as its system HEK293. The data set can be described thus: cells. As to conditions: Homo sapiens. In kind it is functional, cell-based.
In the next data set the target is Tumor necrosis factor (Homo sapiens, UniProt P01375). The data set can be described thus: analog potency on TNFa NF-kB signaling – cell-based, revised, SAR follow-up (AID 2337). The class given is functional.
The test system of data set [5] is HEK293. Nature of the data set: cells. In kind it is functional, cell-based. As to conditions: Homo sapiens. The source holds these as a separate data set.
Data set [6] concerns HEK293. Nature of the data set: cells. As to conditions: Homo sapiens.
The subject of data set [7] is HEK293. Nature of the data set: cells. In kind it is functional, cell-based. As to conditions: Homo sapiens. This is another data set of the same source.
In data set [8] the target is Nucleotide-binding oligomerization domain-containing protein 2 (Homo sapiens, UniProt Q9HC29). Nature of the data set: inhibition of NOD2-driven NF-kB reporter – cell-based, luminescence, uHTS, HEK293 (AID 1566). The class given is functional.
Data set [9] can be described thus: blockers of bursicon-stimulated LGR2 cAMP reporter – cell-based, HEK293, CRE-luciferase reporter, cherry pick, set 2, dose response (AID 743343).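 Also: transfected cells were stimulated with diluted bursicon conditioned medium after compound addition.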 The class given is functional. In general terms: Reporter assays use an easily measured gene product as a stand-in for the process of interest.
The nature of data set [10]: blockade of melanocortin 4 receptor signaling – cell-based, plate reader, cherry pick, counter-screen for LGR2 antagonist project, dose response (AID 743444).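 Also: transfected HEK 293 cells stimulated with alpha-MSH peptide; potency of inhibitors of the alpha-MSH evoked signal.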 In kind it is functional. (In general: The purpose of a counterscreen is to sort out artefacts and off-target activity.)
The next data set has as its target Cytochrome P450 2C19 (Homo sapiens, UniProt P33261). Nature of the data set: Cytochrome panel assay with activity outcomes. Panel member name: p450-cyp2c19 Compounds with AC50 equal or less than 10 uM are considered active. The class given is functional. As to conditions: read-out: AC50.
The target of data set [11] is T2, DNA repair protein RAD52 homolog (Homo sapiens, UniProt P43351).
T2 sequence (P43351 whole entry): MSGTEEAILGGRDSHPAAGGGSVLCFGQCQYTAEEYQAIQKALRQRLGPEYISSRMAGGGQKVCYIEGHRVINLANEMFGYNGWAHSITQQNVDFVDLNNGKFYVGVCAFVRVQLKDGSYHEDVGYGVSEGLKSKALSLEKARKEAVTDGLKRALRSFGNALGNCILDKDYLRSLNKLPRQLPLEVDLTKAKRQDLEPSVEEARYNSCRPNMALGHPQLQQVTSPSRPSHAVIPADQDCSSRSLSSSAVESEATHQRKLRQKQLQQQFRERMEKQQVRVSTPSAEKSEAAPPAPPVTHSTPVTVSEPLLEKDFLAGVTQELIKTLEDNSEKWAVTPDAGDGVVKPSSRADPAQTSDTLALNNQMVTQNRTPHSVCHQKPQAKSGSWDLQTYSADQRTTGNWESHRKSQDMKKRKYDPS
The class given is functional, biochemical.

Data set [12] is described as follows: NIH3T3 cell viability loss – ATP luminescence, mouse fibroblasts, counter-screen, dose response (AID 2010).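 Also: cells exposed to compound for about 90 hours before reading.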 The class given is functional, cell-based.
Data set [13] in a line: Luminescence Cell-Based Dose Retest to Confirm Inhibitors of Cancer Stem Cells. [Related pubchem assays (depositor defined):AID2717, AID2721]. The class given is functional. As to conditions: Homo sapiens.
In data set [14] the target is T3, Ubiquitin-conjugating enzyme E2 N (Homo sapiens, UniProt P61088).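 Also: Dose-response confirmation in a TR-FRET assay detecting UBC13-driven polyubiquitin chain formation, inhibition measured.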
T3 sequence (P61088 whole entry): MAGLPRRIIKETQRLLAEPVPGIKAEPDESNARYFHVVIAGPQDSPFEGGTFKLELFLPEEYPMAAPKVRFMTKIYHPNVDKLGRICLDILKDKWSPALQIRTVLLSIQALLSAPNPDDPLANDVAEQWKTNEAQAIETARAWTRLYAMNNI
In kind it is functional.

Data set [15] can be described thus: Trypanosoma cruzi growth suppression in host cells – NIH3T3 host cells, beta-gal luminescence, confirmation (AID 2044).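 Also: intracellular parasites grown in NIH/3T3 mouse fibroblasts as host cells; luminescent beta-galactosidase reporter signal from transgenic T. cruzi replicating inside host cells; inhibitors lower the luminescence signal.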 In kind it is functional, cell-based.
Data set [16] in a line: non-specific 3'UTR reporter inhibition in Clone20-Shn3RL – cell-based, Renilla luciferase, cherry-picked, counter-screen for Shn3 inhibitor project, dose response (AID 624133). The class given is functional.
A short description of data set [17]: reduction of Shn3 3'UTR-driven luciferase in osteoblasts – cell-based, Clone20 osteoblasts, firefly luciferase, cherry-picked, dose response (AID 624132).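 Also: firefly luciferase luminescence from reporter carrying the Shn3 3'UTR in osteoblasts.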 In kind it is functional.
The test system of the next data set is INS1. Nature of the data set: INS-1E survival protection against cytokine death – cell-based, luminescence, retest, dose response (AID 449756).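 Also: cell death triggered by IL-1 beta plus TNF-alpha plus IFN-gamma mixture; protective hits raise ATP signal compared with cytokine alone wells.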 In kind it is functional. As to conditions: Rattus norvegicus.
In data set [18] the target is T4, COUP transcription factor 2 (Homo sapiens, UniProt P24468).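 Also: HEK293 cells transiently cotransfected with COUP-TFII expression vector and reporter; luciferase reporter luminescence driven by COUP-TFII from the pX2-168 reporter plasmid.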
T4 sequence (P24468 whole entry): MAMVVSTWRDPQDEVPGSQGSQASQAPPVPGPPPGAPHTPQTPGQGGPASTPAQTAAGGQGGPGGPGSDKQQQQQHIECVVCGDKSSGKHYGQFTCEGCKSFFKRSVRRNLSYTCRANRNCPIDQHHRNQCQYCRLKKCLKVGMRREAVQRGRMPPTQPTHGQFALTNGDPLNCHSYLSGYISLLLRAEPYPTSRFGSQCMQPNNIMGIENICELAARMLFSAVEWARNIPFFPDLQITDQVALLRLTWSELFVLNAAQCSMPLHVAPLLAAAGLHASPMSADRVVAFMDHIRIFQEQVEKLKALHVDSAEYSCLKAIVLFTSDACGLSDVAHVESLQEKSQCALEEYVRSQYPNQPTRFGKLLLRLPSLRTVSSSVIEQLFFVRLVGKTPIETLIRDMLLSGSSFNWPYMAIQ
The data set can be described thus: Luminescence-based cell-based high throughput dose response assay to identify inhibitors of COUP-TFII (NR2F2). The class given is functional.

A short description of data set [19]: blockers of HIV-1 ZM109 envelope-driven cell-cell fusion – HeLa effector, CEM target cells, luciferase, cherry-pick, dose response (AID 652058).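 Also: luciferase signal from HIV-1 Env mediated cell-cell fusion of effector and target cells.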 In kind it is functional, cell-based.
Data set [20] is described as follows: blockers of HIV-1 envelope-mediated cell-cell fusion – cherry-pick, dose response (AID 652057). The class given is functional, cell-based.
The nature of data set [21]: HIV-1 AD8 envelope cell-cell fusion blockers – cherry-pick, dose response (AID 652062).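 Also: luciferase signal from cell-cell fusion driven by HIV-1 clade B AD8 Env; potency is for inhibitors of fusion seen as a drop in luminescence.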 The class given is functional, cell-based.
Another data set deals with Cytochrome P450 2C9 (Homo sapiens, UniProt P11712).

Active and inactive are the calls of the source.

Cytochrome P450 2D6, sequence (P10635 whole entry): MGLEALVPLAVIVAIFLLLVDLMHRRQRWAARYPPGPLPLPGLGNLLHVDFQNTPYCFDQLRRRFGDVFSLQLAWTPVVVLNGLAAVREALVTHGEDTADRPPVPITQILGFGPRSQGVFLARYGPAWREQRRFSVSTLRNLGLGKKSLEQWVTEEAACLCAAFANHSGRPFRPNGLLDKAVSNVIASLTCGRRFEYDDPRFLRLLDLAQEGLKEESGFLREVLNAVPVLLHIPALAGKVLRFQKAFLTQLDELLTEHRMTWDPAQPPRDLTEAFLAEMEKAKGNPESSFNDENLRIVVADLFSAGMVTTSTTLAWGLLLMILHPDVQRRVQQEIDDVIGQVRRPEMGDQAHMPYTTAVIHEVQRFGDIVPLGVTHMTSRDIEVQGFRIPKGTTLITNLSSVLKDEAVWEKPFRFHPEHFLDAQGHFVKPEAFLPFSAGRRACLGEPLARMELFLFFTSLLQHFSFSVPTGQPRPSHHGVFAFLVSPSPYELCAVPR
Tumor necrosis factor, sequence (P01375 whole entry): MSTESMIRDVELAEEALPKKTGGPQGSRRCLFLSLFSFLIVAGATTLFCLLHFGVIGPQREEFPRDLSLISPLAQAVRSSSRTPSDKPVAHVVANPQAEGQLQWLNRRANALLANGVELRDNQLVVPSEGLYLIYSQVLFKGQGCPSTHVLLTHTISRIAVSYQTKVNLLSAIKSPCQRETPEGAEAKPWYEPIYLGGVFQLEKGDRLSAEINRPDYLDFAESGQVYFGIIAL
Cytochrome P450 2C9, sequence (P11712 whole entry): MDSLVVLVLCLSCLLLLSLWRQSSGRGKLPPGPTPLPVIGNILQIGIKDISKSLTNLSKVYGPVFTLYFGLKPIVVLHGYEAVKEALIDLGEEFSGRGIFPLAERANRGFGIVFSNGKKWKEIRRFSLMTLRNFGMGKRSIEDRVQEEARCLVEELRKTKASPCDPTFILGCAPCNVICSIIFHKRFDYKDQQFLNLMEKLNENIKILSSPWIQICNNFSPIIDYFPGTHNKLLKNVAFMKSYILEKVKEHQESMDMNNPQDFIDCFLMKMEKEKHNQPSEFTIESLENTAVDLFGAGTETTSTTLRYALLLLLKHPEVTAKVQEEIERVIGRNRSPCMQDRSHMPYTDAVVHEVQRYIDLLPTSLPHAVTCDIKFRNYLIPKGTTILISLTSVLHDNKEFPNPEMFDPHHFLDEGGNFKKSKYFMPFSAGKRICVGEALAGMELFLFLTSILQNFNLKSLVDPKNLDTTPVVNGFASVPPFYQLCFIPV
SUMO-activating enzyme, sequence (Q9UBE0 whole entry): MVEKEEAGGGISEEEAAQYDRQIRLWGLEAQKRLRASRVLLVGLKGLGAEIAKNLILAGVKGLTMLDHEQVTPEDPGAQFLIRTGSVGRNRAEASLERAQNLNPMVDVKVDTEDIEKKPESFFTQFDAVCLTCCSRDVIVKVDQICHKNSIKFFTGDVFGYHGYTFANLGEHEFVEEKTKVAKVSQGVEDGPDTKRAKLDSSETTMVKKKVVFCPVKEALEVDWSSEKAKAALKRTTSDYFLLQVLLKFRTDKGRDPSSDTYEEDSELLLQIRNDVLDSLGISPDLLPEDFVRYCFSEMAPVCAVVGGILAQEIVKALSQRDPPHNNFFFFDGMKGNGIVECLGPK
SUMO-activating enzyme, sequence (Q9UBT2 whole entry): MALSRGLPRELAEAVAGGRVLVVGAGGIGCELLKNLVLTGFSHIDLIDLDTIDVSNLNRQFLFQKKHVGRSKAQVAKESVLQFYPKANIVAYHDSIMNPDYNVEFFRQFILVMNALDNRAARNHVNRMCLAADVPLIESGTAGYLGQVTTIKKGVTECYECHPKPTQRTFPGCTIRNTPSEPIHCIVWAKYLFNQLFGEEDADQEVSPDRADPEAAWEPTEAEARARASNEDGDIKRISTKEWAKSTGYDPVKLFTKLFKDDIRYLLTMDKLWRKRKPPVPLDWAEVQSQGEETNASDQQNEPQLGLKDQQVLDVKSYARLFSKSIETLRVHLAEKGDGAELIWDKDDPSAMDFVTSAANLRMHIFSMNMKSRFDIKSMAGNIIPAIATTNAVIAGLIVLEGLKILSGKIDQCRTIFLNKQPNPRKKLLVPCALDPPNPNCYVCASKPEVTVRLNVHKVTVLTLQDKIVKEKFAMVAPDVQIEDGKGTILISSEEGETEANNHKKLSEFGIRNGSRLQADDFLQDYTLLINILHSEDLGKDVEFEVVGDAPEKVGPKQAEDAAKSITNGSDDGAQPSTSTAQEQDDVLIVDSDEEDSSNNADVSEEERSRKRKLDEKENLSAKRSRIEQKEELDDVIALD
Nucleotide-binding oligomerization domain-containing protein 2, sequence (Q9HC29 whole entry, the tested form may be a part): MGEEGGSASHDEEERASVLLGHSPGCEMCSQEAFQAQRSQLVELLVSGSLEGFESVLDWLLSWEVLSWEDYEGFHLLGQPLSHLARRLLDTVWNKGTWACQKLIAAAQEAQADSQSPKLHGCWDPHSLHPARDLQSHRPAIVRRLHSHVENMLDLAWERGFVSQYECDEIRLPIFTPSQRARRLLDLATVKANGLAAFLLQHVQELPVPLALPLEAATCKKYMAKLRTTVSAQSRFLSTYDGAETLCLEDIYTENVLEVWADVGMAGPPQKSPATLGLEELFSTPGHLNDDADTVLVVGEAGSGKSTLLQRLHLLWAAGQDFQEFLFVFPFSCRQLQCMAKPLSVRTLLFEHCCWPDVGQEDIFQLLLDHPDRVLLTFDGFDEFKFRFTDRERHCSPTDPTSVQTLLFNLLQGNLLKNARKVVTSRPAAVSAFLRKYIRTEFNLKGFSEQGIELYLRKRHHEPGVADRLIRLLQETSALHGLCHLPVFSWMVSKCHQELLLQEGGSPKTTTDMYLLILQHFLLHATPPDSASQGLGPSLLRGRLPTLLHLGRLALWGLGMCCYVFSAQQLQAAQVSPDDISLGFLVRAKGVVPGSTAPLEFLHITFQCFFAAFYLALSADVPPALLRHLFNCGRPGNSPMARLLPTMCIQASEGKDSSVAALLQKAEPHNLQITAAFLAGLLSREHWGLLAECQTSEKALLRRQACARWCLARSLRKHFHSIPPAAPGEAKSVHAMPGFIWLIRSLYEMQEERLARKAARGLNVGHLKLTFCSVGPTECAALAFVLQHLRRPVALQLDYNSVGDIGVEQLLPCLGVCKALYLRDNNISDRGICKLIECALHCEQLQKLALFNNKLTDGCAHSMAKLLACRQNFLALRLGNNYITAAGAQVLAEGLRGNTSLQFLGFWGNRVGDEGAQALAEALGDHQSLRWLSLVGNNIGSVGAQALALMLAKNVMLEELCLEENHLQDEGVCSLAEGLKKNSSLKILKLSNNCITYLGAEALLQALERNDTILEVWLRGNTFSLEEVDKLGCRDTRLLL
Cytochrome P450 2C19, sequence (P33261 whole entry): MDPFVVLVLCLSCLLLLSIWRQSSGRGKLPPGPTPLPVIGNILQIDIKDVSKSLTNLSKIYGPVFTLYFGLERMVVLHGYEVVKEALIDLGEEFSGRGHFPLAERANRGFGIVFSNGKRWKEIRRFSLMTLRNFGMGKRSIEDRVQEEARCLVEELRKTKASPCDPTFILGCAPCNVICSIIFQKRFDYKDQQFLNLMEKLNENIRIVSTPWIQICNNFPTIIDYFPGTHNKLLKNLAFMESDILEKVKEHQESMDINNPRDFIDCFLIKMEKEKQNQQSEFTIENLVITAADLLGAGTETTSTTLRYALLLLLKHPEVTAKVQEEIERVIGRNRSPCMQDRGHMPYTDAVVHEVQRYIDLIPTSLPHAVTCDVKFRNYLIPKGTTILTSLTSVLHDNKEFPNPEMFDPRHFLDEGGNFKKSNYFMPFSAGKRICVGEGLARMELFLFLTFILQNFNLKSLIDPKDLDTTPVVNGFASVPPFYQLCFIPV

For the molecule `Cc1cc(OC(C(=O)O)c2ccccc2)c2c(C)c(Cc3ccccc3)c(=O)oc2c1` (stereo not drawn), the IC50 (usually the concentration at which inhibition is half-maximal) on SUMO-activating enzyme was 41.3 µM (active).

For `CC(C)[C@](N)(C(=O)O)c1ccccc1`, on Cytochrome P450 2D6, the AC50 – broadly, the midpoint of the concentration-response curve, whichever way the signal moves – is “inconclusive”.

`O=C(c1ccc(S(=O)(=O)c2cccc(Cl)c2)c([N+](=O)[O-])c1)N1CCN(c2ccccn2)CC1`: the IC50 in the data set with HEK293 [1] is 1.95 µM (active); in [3], 1.4 µM (active); with HEK293 [4], 1.72 µM (active); on Tumor necrosis factor it was 4.43 µM (active); with HEK293 [5] it was > 20 µM (inactive); in the data set with HEK293 [6], 8.21 µM (active). Besides, in the data set with HEK293 [7], the IC50 is 10.4 µM (active). Also, the EC50 (usually the concentration needed to bring the measured effect to its halfway point) with HEK293 [2] is 10.1 µM (active); in data set [8] it was 12.3 µM (active).

Consider `C=CCNc1nc(-c2cc3ccccc3o2)cs1`, for which the results for the AC50 in data set [9] and in data set [10] were 13.9 µM (active) and 15.2 µM (active), respectively.

Consider `O=C(CCN1C(=O)C2C3C=CC(C3)C2C1=O)Nc1ccc2ncccc2c1` (stereo not drawn), for which the AC50 at Cytochrome P450 2C19 is 20 µM (inconclusive); on Cytochrome P450 2D6 it was “inconclusive”.

With `CO/N=C(/C)CCC(=O)OC[C@@H]1O[C@H](C#Cc2ccccc2)C=C[C@@H]1Oc1ccc(C)cc1`, on Cytochrome P450 2D6, the AC50 entry is on record as “inconclusive”.

Turning to `CCN1CCN(CCCNC(=O)c2ccc(/C=C3/Sc4ccccc4N(Cc4ccccc4F)C3=O)cc2)CC1`, the AC50 in data set [11] is 8.67 µM (active); in data set [13], 2.41 µM (active). Also, the values for the EC50 in [12] and in data set [15] were 22.8 µM (active) and 1.07 µM (active), respectively. Moreover, the IC50 in data set [14] was > 20 µM (inactive).

Turning to `Cc1cc(C(=O)NC2CCCc3c2cnn3-c2ccc(C)c(C)c2)n(C)n1` (stereo not drawn), the AC50 in data set [16] was < 260 nM (active); in [17] it was < 260 nM (active); in the data set with INS1, 240 nM (active). Moreover, the IC50 in data set [3] was 0.0431 µM (active); on Tumor necrosis factor, 0.0793 µM (active); in the data set on HEK293 [6] it was > 20 µM (inactive); in data set [18], > 0.117 µM (active).

With `Cc1nn(-c2ccccc2)c2nc(C(Cl)(Cl)Cl)nc(O)c12`, the IC50 in the data set with HEK293 [1] was 17.9 µM (inactive); with HEK293 [4], > 20 µM (inactive); with HEK293 [5], > 20 µM (inactive); in the data set on HEK293 [6] it was > 20 µM (inactive); in the data set with HEK293 [7] it was > 20 µM (inactive). The EC50 with HEK293 [2] was 12.4 µM (active).

Take `NC(=O)c1ccsc1NC(=O)COC(=O)Cc1cccc2ccccc12`: in [18], the IC50 is 13.8 µM (inactive).

As for `CO[C@H]1COC(=O)[C@@H](Cc2ccccc2)NC(=O)[C@@H](C)COC(=O)CCC[C@@H]1C`, the AC50 result at Cytochrome P450 2D6 is reported as “inconclusive”.

For `COc1ccc(-c2cc(NC=O)c3ncc(-c4cccc(C(=O)NCCN(C)C)c4)n3c2)c(OC)c1`, the AC50 in data set [11] is 2.55 µM (active).

`CCN(CC)S(=O)(=O)c1cccc(NC(=O)COC(=O)c2[nH]c(C)c(C(C)=O)c2C)c1`: the IC50 in data set [18] was 5.62 µM (active).

Turning to `C[C@H](CO)N1C[C@H](C)[C@H](CN(C)S(=O)(=O)c2ccccc2)Oc2ccc(NC(=O)Cc3cn(C)c4ccccc34)cc2CC1=O`, the half-maximal activity concentration (AC50) was 816 nM (active) in data set [19], < 260 nM (active) in [20] and 12 µM (active) in data set [21].

As to `C/C(=N/NC(=O)c1ccc(NC(=O)c2ccc(F)cc2)cc1)c1ccccc1`, the figures for the AC50 at Cytochrome P450 2C9 and at Cytochrome P450 2D6 were 5.01 µM (inconclusive) and “inconclusive”, respectively.

These data come from ChEMBL document CHEMBL1201862, “PubChem BioAssay data set” (2004).
